Source: patent publication US7034056B2, “Aryl and biaryl compounds having MCH modulatory activity” (Pharmacopeia Drug Discovery, inc., priority 2001, dated 2006)

Each compound was assayed against T1, hMCHR (MCH receptor) (Homo sapiens, UniProt Q99705) (assay: MCH Assay PCOP Protocol ([125I]-MCH SPA binding to hMCHR-CHO membranes)). Conditions: [125I]-MCH SPA binding, hMCHR-CHO membranes; Ki class ranges; read-out: Activity (range of Ki).
T1 construct: (or internally produced); host or cells: CHO (Chinese hamster ovary) cells, membrane preparation
Method in brief: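 SPA binding with 10 μg hMCHR-CHO membranes and WGA-SPA beads in 25 mM HEPES pH 7.4, 10 mM NaCl, 10 mM MgCl2, 5 mM MnCl2, 0.1% BSA.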

T1 sequence (Q99705 whole entry): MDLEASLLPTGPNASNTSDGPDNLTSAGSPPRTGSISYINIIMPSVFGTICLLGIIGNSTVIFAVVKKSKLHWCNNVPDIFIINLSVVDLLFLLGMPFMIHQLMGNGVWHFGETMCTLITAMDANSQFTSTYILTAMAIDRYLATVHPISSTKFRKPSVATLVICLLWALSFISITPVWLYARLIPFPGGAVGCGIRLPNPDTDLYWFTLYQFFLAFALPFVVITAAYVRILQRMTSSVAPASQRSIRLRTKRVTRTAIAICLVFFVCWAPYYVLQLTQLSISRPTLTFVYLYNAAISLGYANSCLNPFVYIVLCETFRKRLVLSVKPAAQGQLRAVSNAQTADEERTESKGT

Row | Ki | Structure (SMILES)
1 | 51 to 500 nM | O=C(NCC(CCN1CCCC1)c1ccc(Cl)c(Cl)c1)Nc1cc(C(F)(F)F)cc(C(F)(F)F)c1 (centres unmarked) [Example 422]
2 | 51 to 500 nM | CCN1CCCC1CNCCC(CNC(=O)Nc1cc(C(F)(F)F)cc(C(F)(F)F)c1)c1ccc(Cl)c(Cl)c1 (centres unmarked) [Example 423]
3 | 501 to 2500 nM | CCCN(CC)CCC(CNC(=O)Nc1cc(C(F)(F)F)cc(C(F)(F)F)c1)c1ccc(Cl)c(Cl)c1 (centres unmarked) [Example 424]
4 | 501 to 2500 nM | CN(C)CCCNCCC(CNC(=O)Nc1cc(C(F)(F)F)cc(C(F)(F)F)c1)c1ccc(Cl)c(Cl)c1 (centres unmarked) [Example 425]
5 | 501 to 2500 nM | O=C(NCC(CCNCCc1ccc(O)cc1)c1ccc(Cl)c(Cl)c1)Nc1cc(C(F)(F)F)cc(C(F)(F)F)c1 (centres unmarked) [Example 426]
6 | 501 to 2500 nM | O=C(NCC(CCN1CCC(O)C1)c1ccc(Cl)c(Cl)c1)Nc1cc(C(F)(F)F)cc(C(F)(F)F)c1 (centres unmarked) [Example 427]
7 | 501 to 2500 nM | O=C(NCC(CCNCCN1CCOCC1)c1ccc(Cl)c(Cl)c1)Nc1cc(C(F)(F)F)cc(C(F)(F)F)c1 (centres unmarked) [Example 428]
8 | 501 to 2500 nM | O=C(NCC(CCN1CCCC1CN1CCCC1)c1ccc(Cl)c(Cl)c1)Nc1cc(C(F)(F)F)cc(C(F)(F)F)c1 (centres unmarked) [Example 430]
9 | 501 to 2500 nM | O=C(NCC(CCNCC1CCCO1)c1ccc(Cl)c(Cl)c1)Nc1cc(C(F)(F)F)cc(C(F)(F)F)c1 (centres unmarked) [Example 431]
10 | 501 to 2500 nM | O=C(NCC(CCN1CCC(CO)C1)c1ccc(Cl)c(Cl)c1)Nc1cc(C(F)(F)F)cc(C(F)(F)F)c1 (centres unmarked) [Example 432]
11 | 501 to 2500 nM | CCN(CC)CCC(CNC(=O)Nc1cc(C(F)(F)F)cc(C(F)(F)F)c1)c1ccc(Cl)c(Cl)c1 (centres unmarked) [Example 433]
12 | 501 to 2500 nM | CCCCN(CCC(CNC(=O)Nc1cc(C(F)(F)F)cc(C(F)(F)F)c1)c1ccc(Cl)c(Cl)c1)C1CC1 (centres unmarked) [Example 440]
13 | 501 to 2500 nM | COCC1CCCN1CCC(CNC(=O)Nc1cc(C(F)(F)F)cc(C(F)(F)F)c1)c1ccc(Cl)c(Cl)c1 (centres unmarked) [Example 441]
14 | 51 to 500 nM | O=C(NCC(CCN1CCCCC1)c1ccc(Cl)c(Cl)c1)Nc1cc(C(F)(F)F)cc(C(F)(F)F)c1 (centres unmarked) [Example 444]

The remaining lines, values behind:

Row | Structure (SMILES) | Ki
15 | CC1CCCCN1CCC(CNC(=O)c1cc(C(F)(F)F)cc(C(F)(F)F)c1)c1ccc(Cl)c(Cl)c1 (centres unmarked) [Example 419] | 501 to 2500 nM
16 | O=C(NCC(CCNC1c2ccccc2CC1O)c1ccc(Cl)c(Cl)c1)c1cc(C(F)(F)F)cc(C(F)(F)F)c1 (centres unmarked) [Example 420] | 501 to 2500 nM
17 | COc1cc(CN(C)CCC(CNC(=O)Nc2cc(C(F)(F)F)cc(C(F)(F)F)c2)c2ccc(Cl)c(Cl)c2)cc(OC)c1OC (centres unmarked) [Example 421] | 51 to 500 nM
18 | O=C(NCC(CCN1CCC(CN2CCCCC2)CC1)c1ccc(Cl)c(Cl)c1)Nc1cc(C(F)(F)F)cc(C(F)(F)F)c1 (centres unmarked) [Example 429] | 501 to 2500 nM
19 | COc1ccc2[nH]cc(CCNCCC(CNC(=O)Nc3cc(C(F)(F)F)cc(C(F)(F)F)c3)c3ccc(Cl)c(Cl)c3)c2c1 (centres unmarked) [Example 434] | 501 to 2500 nM
20 | CCN(CCC(CNC(=O)Nc1cc(C(F)(F)F)cc(C(F)(F)F)c1)c1ccc(Cl)c(Cl)c1)Cc1ccncc1 (centres unmarked) [Example 435] | 501 to 2500 nM
21 | CS(=O)(=O)c1ccc(CNCCC(CNC(=O)Nc2cc(C(F)(F)F)cc(C(F)(F)F)c2)c2ccc(Cl)c(Cl)c2)cc1 (centres unmarked) [Example 436] | 501 to 2500 nM
22 | COc1ccc2c(CCNCCC(CNC(=O)Nc3cc(C(F)(F)F)cc(C(F)(F)F)c3)c3ccc(Cl)c(Cl)c3)c[nH]c2c1 (centres unmarked) [Example 437] | 501 to 2500 nM
23 | CC(Cc1c[nH]c2ccccc12)NCCC(CNC(=O)Nc1cc(C(F)(F)F)cc(C(F)(F)F)c1)c1ccc(Cl)c(Cl)c1 (centres unmarked) [Example 438] | 501 to 2500 nM
24 | CC(Cc1c[nH]c2ccc(F)cc12)NCCC(CNC(=O)Nc1cc(C(F)(F)F)cc(C(F)(F)F)c1)c1ccc(Cl)c(Cl)c1 (centres unmarked) [Example 439] | 501 to 2500 nM
25 | Cc1ccc(C(CCN2CCC(N3CCCCC3)CC2)CNC(=O)Nc2cc(C(F)(F)F)cc(C(F)(F)F)c2)cc1 (centres unmarked) [Example 443] | 51 to 500 nM
26 | Cc1ccc(C(CCN2CCCCC2)CNC(=O)Nc2cc(C(F)(F)F)cc(C(F)(F)F)c2)cc1 (centres unmarked) [Example 445] | 501 to 2500 nM
27 | O=C(NCC(CCN1CCCCC1)c1ccc(Cl)c(Cl)c1)c1cc(Cl)cc(Cl)c1 (centres unmarked) [Example 446] | 501 to 2500 nM
28 | O=C(NCC(CCN1CCCCC1)c1ccc(Cl)c(Cl)c1)c1cccc(Cl)c1 (centres unmarked) [Example 447] | 501 to 2500 nM
29 | O=C(Cc1ccc(Cl)c(Cl)c1)NCC(CCN1CCC(N2CCCCC2)CC1)c1ccc(Cl)c(Cl)c1 (centres unmarked) [Example 448] | 501 to 2500 nM
30 | O=C(NCC(CCN1CCCCC1)c1ccc(Cl)c(Cl)c1)c1cccc(C(F)(F)F)c1 (centres unmarked) [Example 449] | 501 to 2500 nM
31 | Cc1ccc(C(=O)NCC(CCN2CCCCC2)c2ccc(Cl)c(Cl)c2)cc1 (centres unmarked) [Example 450] | 501 to 2500 nM
32 | Cc1ccc(C(CCN2CCC(N3CCCCC3)CC2)CNC(=O)Cc2ccc(Cl)c(Cl)c2)cc1 (centres unmarked) [Example 451] | 501 to 2500 nM
33 | O=C(NCC(CCN1CCC(N2CCCCC2)CC1)c1ccc(Cl)c(Cl)c1)c1cc(Cl)cc(Cl)c1 (centres unmarked) [Example 452] | 501 to 2500 nM
34 | N#Cc1cccc(C(=O)NCC(CCN2CCCCC2)c2ccc(Cl)c(Cl)c2)c1 (centres unmarked) [Example 453] | 501 to 2500 nM
35 | Cc1ccc(C(CCN2CCCCC2)CNC(=O)c2cc(C(F)(F)F)cc(C(F)(F)F)c2)cc1 (centres unmarked) [Example 454] | 501 to 2500 nM
36 | O=C(NCC(CCN1CCCCC1)c1ccc(Cl)c(Cl)c1)c1ccc(F)cc1 (centres unmarked) [Example 455] | 501 to 2500 nM
37 | Cc1cc(C)cc(C(=O)NCC(CCN2CCCCC2)c2ccc(Cl)c(Cl)c2)c1 (centres unmarked) [Example 456] | 501 to 2500 nM
38 | O=C(NCc1cc(C(F)(F)F)cc(C(F)(F)F)c1)C(CCN1CCC(N2CCCCC2)CC1)c1ccc(Cl)c(Cl)c1 (centres unmarked) [Example 457] | 501 to 2500 nM
